Laboratory results taken from ChEMBL document CHEMBL5241082, “Discovery and Characterization of Benzimidazole Derivative XY123 as a Potent, Selective, and Orally Available RORγ Inverse Agonist” (J Med Chem, 2021).

Experiments:
[1] = in vitro; conditions: rat, liver microsomes
[2] = in vitro; conditions: human, liver microsomes
[3] = in vivo; conditions: Sprague-Dawley, rat, iv, 5 mg/kg

Row | Compound | half-life at 1 µM [1] | half-life at 1 µM [2] | clearance at 24 h [3]
1 | O=C(c1ccc(F)cc1)C1CCN(CCn2c(=O)[nH]c3ccccc3c2=O)CC1 [KETANSERIN] | > 2 h | > 2 h | –
2 | CCS(=O)(=O)c1ccc(CC(=O)Nc2ccc(-c3nc4ccc(C(F)(F)F)cc4n3[C@H](C)c3ccc(F)cc3)cc2)cc1 | 0.373 h | 0.0505 h | 3 mL/min/kg
3 | CCS(=O)(=O)c1ccc(CC(=O)Nc2ccc(-c3nc4ccc(C(F)(F)F)cc4n3[C@@H](C)c3ccc(F)cc3)cc2)cc1 | > 2 h | > 2 h | 3.33 mL/min/kg
